The record followed here is ChEMBL document CHEMBL4431301, “The Medicinal Chemistry of Dengue Virus” (J Med Chem, 2016).

For data set [1], the system named is dengue virus type 4. Kind of data set: Antiviral activity against Dengue virus 4 H241 infected in BHK21 cells assessed as reduction in viral titer after 48 hrs by plaque assay. Format: functional, organism-based. As to conditions: H241, BHK-21, 48 h.
The subject of data set [2] is dengue virus type 2. Nature of the data set: Antiviral activity against Dengue virus 2 NGC infected in human A549 cells assessed as reduction in viral envelope protein production after 48 hrs by CFI assay. Format: functional, organism-based. As to conditions: A549, 48 h.
Data set [3] relates to dengue virus type 1. Nature of the data set: Antiviral activity against Dengue virus 1 West Pacific infected in BHK21 cells assessed as reduction in viral titer after 48 hrs by plaque assay. As to conditions: BHK-21, 48 h. Format: functional, organism-based.
The test system of data set [4] is dengue virus type 2. Kind of data set: Antiviral activity against Dengue virus 2 NGC infected in BHK21 cells assessed as reduction in viral titer after 48 hrs by plaque assay. It counts as functional, organism-based. The conditions noted are these: BHK-21, 48 h.
The subject of data set [5] is dengue virus type 3. Kind of data set: Antiviral activity against Dengue virus 3 H87 infected in BHK21 cells assessed as reduction in viral titer after 48 hrs by plaque assay. It counts as functional, organism-based. The conditions noted are these: H87, BHK-21, 48 h.
Data set [6] concerns dengue virus type 2. Kind of data set: Antiviral activity against Dengue virus 2 infected in african green monkey Vero cells preincubated with cells followed by viral infection measured after 4 days by immunofluorescence staining based fluorescence microscope. Format: functional, organism-based.
For data set [7], the target named is T1, Genome polyprotein (dengue virus type 2, UniProt P29990). Nature of the data set: Inhibition of Dengue virus 2 GFP/DsRed fused NS2B-NS3 protease co-transfected in HEK293T cells by Western blot analysis. Format: cell-based.
Data set [8] has as its target T1, Genome polyprotein. Kind of data set: Inhibition of Dengue virus 2 NS2B-NS3 protease expressed in Escherichia coli BL21(DE3) using Boc-Gly-Arg-Arg-7-amino-4-methylcoumarin as substrate after 10 mins by fluorescence assay.
Data set [9] has as its target T1, Genome polyprotein. Kind of data set: Inhibition of Dengue virus 2 Taiwanese PL046 NS2B-NS3 protease using Ac-TTSTRR-pNA as substrate preincubated for 10 mins followed by addition of substrate measured after 2 hrs.
For data set [10], the system named is dengue virus type 2. Kind of data set: Antiviral activity against Dengue virus 2 infected in human A549 cells assessed as decrease in viral envelope protein production after 48 hrs by CFI assay. Format: functional, organism-based. As to conditions: A549, 48 h.
A short description of data set [11]: Selectivity index, ratio of CC50 for human A549 cells to EC50 for Dengue virus 2 infected in human A549 cells. It counts as toxicity, cell-based. As to conditions: read-out: Ratio CC50/EC50.
In data set [12] the target is DEN4V NS2B-G4SG4NS3 serine protease (Dengue virus type 4, UniProt P09866). Kind of data set: Non-competitive inhibition of Dengue virus 4 NS3 helicase.
Data set [13] has as its system dengue virus type 2. Kind of data set: Antiviral activity against Dengue virus 2 NGC infected in african green monkey Vero cells preincubated with virus for 5 mins followed by cell infection for 5 mins by immunofluorescence analysis. Format: functional, organism-based.
The nature of data set [14]: Cytotoxicity against BHK21 cells assessed as cell viability after 24 hrs by ATP-Lite assay. It counts as cell-based, Mesocricetus auratus, BHK-21. As to conditions: hamster.
Data set [15] deals with dengue virus type 2. Kind of data set: Antiviral activity against Dengue virus 2 NGC infected in BHK21 cells assessed as reduction in virus replication after 24 hrs by renilla luciferase reporter gene assay. As to conditions: BHK-21, 24 h. It counts as functional, organism-based.
In data set [16] the target is T1, Genome polyprotein. Nature of the data set: Inhibition of the Dengue virus 2 NS2B-NS3 protease expressed in Escherichia coli BL21(DE3)-RIPL cells using Pyr-RTKR-AMC as substrate preincubated for 30 mins followed by addition of substrate.
The subject of data set [17] is dengue virus type 3. Kind of data set: Antiviral activity against Dengue virus 3 P12-08 infected in african green monkey Vero cells assessed as reduction in virus replication after 72 hrs by foci-forming assay. As to conditions: P12-08, Vero. Format: functional, organism-based.
Data set [18] has as its system dengue virus type 4. Nature of the data set: Antiviral activity against Dengue virus 4 P11-08 infected in african green monkey Vero cells assessed as reduction in virus replication after 72 hrs by foci-forming assay. As to conditions: P11-08, Vero. It counts as functional, organism-based.
Data set [19] relates to dengue virus type 1. Nature of the data set: Antiviral activity against Dengue virus 1 P03-08 infected in african green monkey Vero cells assessed as reduction in virus replication after 72 hrs by foci-forming assay. Format: functional, organism-based. The conditions noted are these: P03-08, Vero.
The subject of data set [20] is dengue virus type 2. Nature of the data set: Antiviral activity against Dengue virus 2 NGC infected in african green monkey Vero cells assessed as reduction in virus replication after 72 hrs by foci-forming assay. Format: functional, organism-based.
A short description of data set [21]: Cytotoxicity against african green monkey Vero cells after 72 hrs by MTT assay. It counts as cell-based. As to conditions: chlorocebus sabaeus. A general note: Formazan colour is commonly taken as a measure of viable cells.

As for `COc1ccc(-c2csc(NC(=O)c3cc(C(C)(C)C)cc(C(C)(C)C)c3)n2)cc1`, the EC50 was 1 to 4.1 µM with dengue virus type 4 [1]; 1 µM in the data set on dengue virus type 2 [2]; 1 to 4.1 µM in the data set with dengue virus type 1 [3]; 1.6 µM in the data set on dengue virus type 2 [4]; 1 to 4.1 µM with dengue virus type 3 [5].

In turn, `O=C(Nc1nc2cc(O)c(O)cc2s1)c1ccccc1Oc1ccc2cc(O)ccc2c1` had an EC50 in the data set on dengue virus type 2 [6] of 0.8 µM. Also, the IC50 against Genome polyprotein [7] was 3.2 µM; against Genome polyprotein [8], 4.2 µM.

`CCCCCCCCCCCCCCCC[N+](CC)(CO)CO` showed an IC50 on Genome polyprotein [9] of 22.6 µM.

On to `CC(=O)O[C@H]1[C@H]2c3cc4c(cc3CN3CCC(=C[C@@H]1O)[C@H]23)OCO4`, for which the EC50 with dengue virus type 2 [10] stood at 0.4 µM. Besides, the selectivity ratio in data set [11] is more than 750.

For `Cc1ccc(C(=O)Nc2ccc(S(=O)(=O)O)c3cc(S(=O)(=O)O)cc(S(=O)(=O)O)c23)cc1NC(=O)c1cccc(NC(=O)Nc2cccc(C(=O)Nc3cc(C(=O)Nc4ccc(S(=O)(=O)O)c5cc(S(=O)(=O)O)cc(S(=O)(=O)O)c45)ccc3C)c2)c1` [SURAMIN], in [12], the inhibition constant (Ki) turned out to be 0.75 µM. This molecule showed an EC50 in the data set on dengue virus type 2 [13] of 40 µM.

As for `Nc1cc(N)c(/N=N/c2ccc(S(=O)(=O)Nc3nccs3)cc2)cc1/N=N/c1ccc(S(=O)(=O)Nc2nccs2)cc1`, in data set [14], the 50% cytotoxic concentration (CC50) at 24 h turned out to be 213 µM. In the data set with dengue virus type 2 [15], the half-maximal effective concentration (EC50) amounted to 39.9 µM. At Genome polyprotein [16], this molecule registered an IC50 of 2.75 µM.

As for `Cc1ccc(S(=O)(=O)Nc2cc(SCC(=O)O)c(O)c3ccccc23)cc1[N+](=O)[O-]`, the EC50 with dengue virus type 3 [17] worked out at 2.43 µM; in the data set on dengue virus type 4 [18], 0.74 µM; with dengue virus type 1 [19] it was 0.97 µM; in the data set on dengue virus type 2 [20], 0.98 µM. Also, the CC50 at 72 h in data set [21] stood at 67.3 µM.

In general, EC50 refers to the midpoint of the concentration-response curve. As usually defined, the IC50 is the concentration at which inhibition is half-maximal. In general, Ki refers to a measure of affinity in units of concentration, obtained from inhibition or displacement. In general, CC50 refers to the concentration that lowers cell viability or growth by half.
